Experimental data: patent US7115268B1, “Peptides useful for reducing symptoms of toxic shock syndrome and septic shock” (The Rockefeller University, priority 1997, dated 2006)
Where “and” joins values, the source holds several entries; their conditions need not be identical. Equal values may be shown once. Entries after “also recorded” stand apart in the source; their conditions may differ. Read-outs that look alike come from different tables or passages of the source.

Columns and labels:
[1] = design: species or system New Zealand White rabbits; conditions: rabbit, in vivo; for antibody titers to the immunizing peptide (ELISA): sc
[2] = design: species or system mice; conditions: mouse, in vivo
PBMC stimulated with SEB = format: cell-based, human; conditions: 72 hours
PBMC stimulated with SEC = format: cell-based, human; conditions: 72 hours
PBMC stimulated with SED = format: cell-based, human; conditions: 72 hours
[3] = system: PBMC stimulated with SPEC; format: cell-based, human; conditions: 72 hours
[4] = system: PBMC stimulated with SPEA; format: cell-based, human; conditions: 72 hours
[5] = system: PBMC stimulated with TSST-1; format: cell-based, human; conditions: 72 hours
[6] = system: PBMC stimulated with SPEG; format: cell-based, human; conditions: 72 hours
[7] = system: PBMC stimulated with SPEH; format: cell-based, human; conditions: 72 hours
[8] = system: PBMC stimulated with SPEZ; format: cell-based, human; conditions: 72 hours
[9] = system: purified MHC class II molecules; format: binding
SEB = SEB (Staphylococcus aureus, UniProt P01552); conditions: mouse, in vivo
SPEA = SPEA (Streptococcus pyogenes phage T12, UniProt P0DJY8); conditions: mouse, in vivo
TSST-1 = TSST-1 (Staphylococcus aureus, UniProt P06886); conditions: mouse, in vivo
Sequence of TSST-1 (P06886 41-234 limits assumed): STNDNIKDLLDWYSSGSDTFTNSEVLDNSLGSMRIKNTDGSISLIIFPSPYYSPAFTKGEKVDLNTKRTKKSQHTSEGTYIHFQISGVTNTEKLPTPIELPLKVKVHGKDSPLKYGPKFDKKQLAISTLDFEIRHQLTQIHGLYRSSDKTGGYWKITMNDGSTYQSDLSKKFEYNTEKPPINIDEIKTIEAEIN

Sequence of SEB (P01552 28-266 limits assumed): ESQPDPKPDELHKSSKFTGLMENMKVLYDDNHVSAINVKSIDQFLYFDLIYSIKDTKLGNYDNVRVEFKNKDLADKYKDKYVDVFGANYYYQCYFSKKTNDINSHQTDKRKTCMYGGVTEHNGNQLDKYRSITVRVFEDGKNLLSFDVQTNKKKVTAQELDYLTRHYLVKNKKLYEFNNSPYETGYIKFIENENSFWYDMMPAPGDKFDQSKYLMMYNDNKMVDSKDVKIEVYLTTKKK
Sequence of SPEA (P0DJY8 31-251): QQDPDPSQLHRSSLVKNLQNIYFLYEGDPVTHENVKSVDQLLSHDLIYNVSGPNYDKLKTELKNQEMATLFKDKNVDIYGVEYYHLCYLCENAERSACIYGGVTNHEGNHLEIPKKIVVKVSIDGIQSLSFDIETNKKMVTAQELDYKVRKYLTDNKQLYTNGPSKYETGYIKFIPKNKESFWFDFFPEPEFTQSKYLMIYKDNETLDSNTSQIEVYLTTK

Substance: CMYGGVTEHEGN [peptide 6343]
- induction of detectable antibodies [1]: does not induce detectable antibodies
- induction of detectable antibodies [2]: does not induce detectable antibodies
- inhibition of blastogenesis (tritiated thymidine incorporation) (PBMC stimulated with SEB): inhibited blastogenesis
- inhibition of blastogenesis, dose response (PBMC stimulated with SEB): dose-response inhibition of blastogenesis
- inhibitory activity of SEB compared with peptide 6346 or peptide 6348 (PBMC stimulated with SEB): more inhibitory activity
- inhibition of blastogenesis (tritiated thymidine incorporation) (PBMC stimulated with SEC): inhibited blastogenesis
- inhibition of blastogenesis (tritiated thymidine incorporation) (PBMC stimulated with SED): inhibited blastogenesis
- inhibition of blastogenesis (tritiated thymidine incorporation) [3]: inhibited blastogenesis
- inhibition of blastogenesis (tritiated thymidine incorporation) [4]: inhibited blastogenesis
- inhibition of blastogenesis (tritiated thymidine incorporation) [5]: inhibited blastogenesis
- inhibition of blastogenesis (tritiated thymidine incorporation) [6]: inhibited blastogenesis
- inhibition of blastogenesis (tritiated thymidine incorporation) [7]: inhibited blastogenesis
- inhibition of blastogenesis (tritiated thymidine incorporation) [8]: inhibited blastogenesis
- binding to the MHC complex [9]: binds very strongly
- competition for the site of SEB binding on MHC (decreased anti-SEB antibody binding) [9]: able to compete effectively; also recorded: decreased anti-SEB binding at increased concentrations
- Alive/Total SEB (SEB): 5 out of 6 and 5/6 (83%)
- Alive/Total SEB, percent alive (SEB): 5/6 (83%)
- Alive/Total SPEA (SPEA): 2 out of 2 and 2/2 (100%)
- Alive/Total SPEA, percent alive (SPEA): 2/2 (100%)
- Alive/Total TSST-1 (TSST-1): 2 out of two and 2/2 (100%)
- Alive/Total TSST-1, percent alive (TSST-1): 2/2 (100%)

Substance: CMYGGVTEHEGNKKNVTVQELDYKIRKYLVDNKKLYGC* [peptide 6348]
- antibody titers to the immunizing peptide (ELISA) [1]: high titer antibodies; also recorded: significant antibody titers

Substance: CMYGGVTEHEGNGC* [compound 6344]
- antibody titers to the immunizing peptide (ELISA) [1]: high titers

Substance: CGKKNVTVQELDYKIRKYLVDNKKLYGC* [peptide 6346]
- antibody titers to the immunizing peptide (ELISA) [1]: high titers
